Measurements: patent publication US10799522B2, “Compositions and methods relating to galectin detection” (Wayne State University, priority 2015, dated 2020)

Assay: radiation dosimetry estimates for human patients
Conditions: adult male
[1] = target organ Urinary Bladder Wall

## OCC1OC(SC2OC(CO)C(O)C(n3cc(-c4cccc([18F])c4)nn3)C2O)C(O)C(n2cc(-c3cccc(F)c3)nn2)C1O [[^18F]FPTDG, 3-(3-[^18F]fluorophenyltriazolyl)-3-deoxy-3′-(3-fluorophenyltriazolyl)-3′-deoxy-1-thio-β-D-digalactopyranoside]
Target organ Ovaries
  Estimated organ dose, ED Cont.: 1.20 mSv per 370 MBq dose or 10 mCi
  Estimated organ dose, EDE Cont.: 1.50 mSv per 370 MBq dose or 10 mCi
  Estimated organ dose, Photon: 4.32 mSv per 370 MBq dose or 10 mCi
  Estimated organ dose, Total: 6.02 mSv per 370 MBq dose or 10 mCi
Target organ Pancreas
  Estimated organ dose, Alpha: 0 mSv per 370 MBq dose or 10 mCi
  Estimated organ dose, Beta: 1.70 mSv per 370 MBq dose or 10 mCi
  Estimated organ dose, ED Cont.: 0.03 mSv per 370 MBq dose or 10 mCi
  Estimated organ dose, EDE Cont.: 0.35 mSv per 370 MBq dose or 10 mCi
  Estimated organ dose, Photon: 4.2 mSv per 370 MBq dose or 10 mCi
  Estimated organ dose, Total: 5.90 mSv per 370 MBq dose or 10 mCi
Target organ Red Marrow
  Estimated organ dose, Alpha: 0 mSv per 370 MBq dose or 10 mCi
  Estimated organ dose, Beta: 1.21 mSv per 370 MBq dose or 10 mCi
  Estimated organ dose, ED Cont.: 0.51 mSv per 370 MBq dose or 10 mCi
  Estimated organ dose, EDE Cont.: 0.51 mSv per 370 MBq dose or 10 mCi
  Estimated organ dose, Photon: 3.03 mSv per 370 MBq dose or 10 mCi
  Estimated organ dose, Total: 4.24 mSv per 370 MBq dose or 10 mCi
Target organ Skin
  Estimated organ dose, Alpha: 0 mSv per 370 MBq dose or 10 mCi
  Estimated organ dose, Beta: 1.70 mSv per 370 MBq dose or 10 mCi
  Estimated organ dose, ED Cont.: 0.03 mSv per 370 MBq dose or 10 mCi
  Estimated organ dose, EDE Cont.: 0.00 mSv per 370 MBq dose or 10 mCi
  Estimated organ dose, Photon: 1.76 mSv per 370 MBq dose or 10 mCi
  Estimated organ dose, Total: 3.46 mSv per 370 MBq dose or 10 mCi
Target organ Small Intestine
  Estimated organ dose, Alpha: 0 mSv per 370 MBq dose or 10 mCi
  Estimated organ dose, Beta: 4.15 mSv per 370 MBq dose or 10 mCi
  Estimated organ dose, ED Cont.: 0.04 mSv per 370 MBq dose or 10 mCi
  Estimated organ dose, EDE Cont.: 0.50 mSv per 370 MBq dose or 10 mCi
  Estimated organ dose, Photon: 4.21 mSv per 370 MBq dose or 10 mCi
  Estimated organ dose, Total: 8.36 mSv per 370 MBq dose or 10 mCi
Target organ Spleen
  Estimated organ dose, Alpha: 0 mSv per 370 MBq dose or 10 mCi
  Estimated organ dose, Beta: 1.70 mSv per 370 MBq dose or 10 mCi
  Estimated organ dose, ED Cont.: 0.03 mSv per 370 MBq dose or 10 mCi
  Estimated organ dose, EDE Cont.: 0.00 mSv per 370 MBq dose or 10 mCi
  Estimated organ dose, Photon: 3.52 mSv per 370 MBq dose or 10 mCi
  Estimated organ dose, Total: 5.22 mSv per 370 MBq dose or 10 mCi
Target organ Stomach Wall
  Estimated organ dose, Alpha: 0 mSv per 370 MBq dose or 10 mCi
  Estimated organ dose, Beta: 9.17 mSv per 370 MBq dose or 10 mCi
  Estimated organ dose, ED Cont.: 1.79 mSv per 370 MBq dose or 10 mCi
  Estimated organ dose, EDE Cont.: 0.90 mSv per 370 MBq dose or 10 mCi
  Estimated organ dose, Photon: 5.78 mSv per 370 MBq dose or 10 mCi
  Estimated organ dose, Total: 14.90 mSv per 370 MBq dose or 10 mCi
Target organ Testes
  Estimated organ dose, Alpha: 0 mSv per 370 MBq dose or 10 mCi
  Estimated organ dose, Beta: 1.70 mSv per 370 MBq dose or 10 mCi
  Estimated organ dose, ED Cont.: 0.00 mSv per 370 MBq dose or 10 mCi
  Estimated organ dose, EDE Cont.: 0.00 mSv per 370 MBq dose or 10 mCi
  Estimated organ dose, Photon: 2.67 mSv per 370 MBq dose or 10 mCi
  Estimated organ dose, Total: 4.37 mSv per 370 MBq dose or 10 mCi
Target organ Thymus
  Estimated organ dose, Alpha: 0 mSv per 370 MBq dose or 10 mCi
  Estimated organ dose, Beta: 1.70 mSv per 370 MBq dose or 10 mCi
  Estimated organ dose, ED Cont.: 0.02 mSv per 370 MBq dose or 10 mCi
  Estimated organ dose, EDE Cont.: 0.00 mSv per 370 MBq dose or 10 mCi
  Estimated organ dose, Photon: 2.63 mSv per 370 MBq dose or 10 mCi
  Estimated organ dose, Total: 4.33 mSv per 370 MBq dose or 10 mCi
Target organ Thyroid
  Estimated organ dose, Alpha: 0 mSv per 370 MBq dose or 10 mCi
  Estimated organ dose, Beta: 1.70 mSv per 370 MBq dose or 10 mCi
  Estimated organ dose, ED Cont.: 0.22 mSv per 370 MBq dose or 10 mCi
  Estimated organ dose, EDE Cont.: 0.13 mSv per 370 MBq dose or 10 mCi
  Estimated organ dose, Photon: 2.78 mSv per 370 MBq dose or 10 mCi
  Estimated organ dose, Total: 4.48 mSv per 370 MBq dose or 10 mCi
Target organ ULI Wall
  Estimated organ dose, Alpha: 0 mSv per 370 MBq dose or 10 mCi
  Estimated organ dose, Beta: 1.70 mSv per 370 MBq dose or 10 mCi
  Estimated organ dose, ED Cont.: 0.03 mSv per 370 MBq dose or 10 mCi
  Estimated organ dose, EDE Cont.: 0.00 mSv per 370 MBq dose or 10 mCi
  Estimated organ dose, Photon: 4.02 mSv per 370 MBq dose or 10 mCi
  Estimated organ dose, Total: 5.71 mSv per 370 MBq dose or 10 mCi
[1]
  Estimated organ dose, Alpha: 0 mSv per 370 MBq dose or 10 mCi
  Estimated organ dose, Beta: 1.70 mSv per 370 MBq dose or 10 mCi
  Estimated organ dose, ED Cont.: 0.27 mSv per 370 MBq dose or 10 mCi
  Estimated organ dose, EDE Cont.: 0.00 mSv per 370 MBq dose or 10 mCi
  Estimated organ dose, Photon: 3.63 mSv per 370 MBq dose or 10 mCi
  Estimated organ dose, Total: 5.33 mSv per 370 MBq dose or 10 mCi
Target organ Uterus
  Estimated organ dose, Alpha: 0 mSv per 370 MBq dose or 10 mCi
  Estimated organ dose, Beta: 1.70 mSv per 370 MBq dose or 10 mCi
  Estimated organ dose, ED Cont.: 0.03 mSv per 370 MBq dose or 10 mCi
  Estimated organ dose, EDE Cont.: 0.35 mSv per 370 MBq dose or 10 mCi
  Estimated organ dose, Photon: 4.06 mSv per 370 MBq dose or 10 mCi
  Estimated organ dose, Total: 5.76 mSv per 370 MBq dose or 10 mCi
